The text below walks through data of publication PMC8100071, “Lipid binding by the N-terminal motif mediates plasma membrane localization of Bordetella effector protein BteA” (The Journal of Biological Chemistry, 2021).

Read-outs that look alike come from different tables or passages of the source.

The experiment addresses T1, LRT (GST-tagged N-terminal LRT domain of BteA) (Bordetella pertussis, UniProt Q7VSD3).
T1 construct: gene BP0500; N-terminal lipid raft targeting (membrane localization) domain, aa 1-130 of 656; N-terminal GST tag (pGEX-6P1) kept; E. coli Rosetta 2
Put plainly: SPR steady state, immobilized liposomes. It counts as binding.

T1 sequence (Q7VSD3 entry or part of it): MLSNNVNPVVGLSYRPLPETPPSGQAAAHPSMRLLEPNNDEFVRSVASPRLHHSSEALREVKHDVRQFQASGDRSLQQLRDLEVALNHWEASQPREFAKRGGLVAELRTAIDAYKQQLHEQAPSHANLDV

As to `CCCCCCCC/C=C\CCCCCCCC(=O)O[C@H](COC(=O)CCCCCCCCCCCCCCC)COP(=O)(O)O` [PA], the Kd (read-out: KD (apparent), PA/PC 5:95 (mol) liposomes, 100 nm, 50 mM Tris-HCl pH 7.4, 150 mM NaCl, 0.005% Tween-20, 25 °C, Kd in terms of protein concentration) worked out at 492 ± 86 nM.
On to `CCCCCCCC/C=C\CCCCCCCC(=O)O[C@H](COC(=O)CCCCCCCCCCCCCCC)COP(=O)(O)OC[C@H](N)C(=O)O` [PS], for which the Kd (read-out: KD (apparent), PS/PC 20:80 (mol) liposomes, 100 nm, 50 mM Tris-HCl pH 7.4, 150 mM NaCl, 0.005% Tween-20, 25 °C, Kd in terms of protein concentration, unit nM shared in the sentence, abstract gives ∼1.2 μM) came to 1230 ± 245 nM.
Compound `CCCCCCCC/C=C\CCCCCCCC(=O)OC[C@H](COP(=O)(O)O[C@@H]1[C@H](O)[C@H](O)[C@@H](OP(=O)(O)O)[C@H](OP(=O)(O)O)[C@H]1O)OC(=O)CCCCCCC/C=C\CCCCCCCC` [PIP2] had a Kd of 446 ± 65 nM.
